pIC50: −log10 of the molar value.
Columns and labels:
CCK-B = molecular target: T1, CCK-B (Cavia porcellus, UniProt H0VZC5); assay: displacement of 125I-CCK from guinea pig brain (CCK-B); assay type: binding
T1 construct: guinea pig brain (CCK-B); from tissue; host or cells: guinea pig brain
Experimental: (§1) The CCK-A and CCK-B antagonising activity of the compounds described herein was evaluated using the assays described in published European patent application no. 0514133. The method essentially involves determining the concentration of the test compound required to displace 50% of the specific ^125 I-CCK from rat pancreas (CCK-A) or guinea pig brain (CCK-B). The data in Table 1 were obtained for the compound of Example 1.

CCK-A = molecular target: T2, CCK-A (Rattus norvegicus, UniProt P30551); assay: displacement of 125I-CCK from rat pancreas (CCK-A); details: 50% displacement of specific 125I-CCK, read-out: CCK receptor binding IC50, 125I-CCK Pancreas
T2 construct: ^125 I-CCK from rat pancreas (CCK-A); from tissue; host or cells: rat pancreas
T2 sequence (P30551 1-444): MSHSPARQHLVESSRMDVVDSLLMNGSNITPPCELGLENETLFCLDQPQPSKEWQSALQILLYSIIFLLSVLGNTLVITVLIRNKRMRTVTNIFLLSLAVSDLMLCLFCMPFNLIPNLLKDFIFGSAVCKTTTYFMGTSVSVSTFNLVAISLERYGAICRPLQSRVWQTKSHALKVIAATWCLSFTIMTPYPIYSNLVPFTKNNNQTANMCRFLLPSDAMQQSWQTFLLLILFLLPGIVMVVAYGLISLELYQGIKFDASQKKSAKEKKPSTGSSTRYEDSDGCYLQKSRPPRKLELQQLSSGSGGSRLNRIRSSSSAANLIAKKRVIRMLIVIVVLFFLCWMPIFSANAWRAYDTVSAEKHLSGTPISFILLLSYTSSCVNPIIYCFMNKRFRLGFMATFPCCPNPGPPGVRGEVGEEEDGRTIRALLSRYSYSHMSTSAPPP
Experimental: as §1

T1 sequence (H0VZC5 entry or part of it): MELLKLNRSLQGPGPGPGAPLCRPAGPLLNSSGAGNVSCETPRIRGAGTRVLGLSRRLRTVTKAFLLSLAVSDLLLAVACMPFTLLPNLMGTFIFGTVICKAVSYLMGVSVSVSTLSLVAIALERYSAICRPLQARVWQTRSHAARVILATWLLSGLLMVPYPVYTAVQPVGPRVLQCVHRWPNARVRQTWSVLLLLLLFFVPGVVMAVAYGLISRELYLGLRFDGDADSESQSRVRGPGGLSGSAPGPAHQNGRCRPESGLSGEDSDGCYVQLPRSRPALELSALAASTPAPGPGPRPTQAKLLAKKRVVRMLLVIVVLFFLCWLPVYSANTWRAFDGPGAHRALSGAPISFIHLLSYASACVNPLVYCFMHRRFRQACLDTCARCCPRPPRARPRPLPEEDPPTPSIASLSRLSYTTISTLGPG

Question: Which results are given for `Cc1cccc(NC(=O)NC2N=C(C3CCCCC3)c3ccsc3N(C)C2=O)c1` (racemic) [Example 1, N-[3(R,S)-5-cyclohexyl-2,3-dihydro-1-methyl-2-oxo-1H-1,4-thienodiazepine-3-yl]-N'-(3-methylphenyl) urea]?
Answer: pIC50 (CCK-B): 7.34; pIC50 (CCK-A): 8.17
